Data: publication PMC10584170, “Machine learning-based phenotypic imaging to characterise the targetable biology of Plasmodium falciparum male gametocytes for the development of transmission-blocking antimalarials” (PLOS Pathogens, 2023)

Key:
[1] = system: P. falciparum male gametocytes; test: P. falciparum Dual Gamete Formation Assay (PfDGFA), male readout (exflagellation); assay type: cell-based, Plasmodium falciparum NF54; conditions: for Average inhibition male (%): average of replicates; for % inhibition male (individual replicates) R1: replicate R1; for % inhibition male (individual replicates) R3: replicate R3; for % inhibition male (individual replicates) R4: replicate R4; for Activity: hit = >50% inhibition in male or female readout in at least 3 replicates, 0 = no class assigned
Method in brief: (§1)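 Male and female gamete formation were quantified by microscopy image analysis following 24 h incubation of mature NF54 gametocytes with compound and activation at 28°C with xanthurenic acid.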

[2] = system: P. falciparum female gametocytes; test: P. falciparum Dual Gamete Formation Assay (PfDGFA), female readout (Pfs25-positive female gametes); assay type: cell-based, Plasmodium falciparum NF54; conditions: for Average inhibition female (%): average of replicates; for % inhibition female (individual replicates) R1: replicate R1; for % inhibition female (individual replicates) R3: replicate R3; for % inhibition female (individual replicates) R4: replicate R4
Method in brief: as §1

[3] = 2µM, 24h preincubation with gametocytes prior to induction of gametogenesis
[4] = 2µM, 24h preincubation, number of replicates with >50% inhibition in the male readout
[5] = 2µM, 24h preincubation, number of replicates with >50% inhibition in the female readout
[6] = 2µM, 24h preincubation, hits selected on >50% inhibition in the male readout across replicates
[7] = PfDGFA at 2µM, 24h preincubation
[8] = 2µM, 24h preincubation, hits selected on >50% inhibition in the female readout across replicates
[9] = PfDGFA at 2µM, 24h preincubation with gametocytes
[10] = number of replicates with >50% inhibition in the male readout, 2µM
[11] = number of replicates with >50% inhibition in the female readout, 2µM
[12] = PfDGFA at 2µM, 24h preincubation with gametocytes prior to induction of gametogenesis

SMILES	Average inhibition male (%) [1, 3] [%]	% inhibition male (individual replicates) R1 [1, 3] [%]	% inhibition male (individual replicates) R3 [1, 3] [%]	% inhibition male (individual replicates) R4 [1, 3] [%]	Average inhibition female (%) [2, 3] [%]	% inhibition female (individual replicates) R1 [2, 3] [%]	% inhibition female (individual replicates) R3 [2, 3] [%]	% inhibition female (individual replicates) R4 [2, 3] [%]	% inhibition male (individual replicates) R1 [1, 12] [%]	% inhibition male (individual replicates) R4 [1, 12] [%]	Average inhibition male (%) [1, 7] [%]	% inhibition female (individual replicates) R1 [2, 12] [%]	% inhibition female (individual replicates) R3 [2, 12] [%]	% inhibition female (individual replicates) R4 [2, 12] [%]	Average inhibition female (%) [2, 7] [%]	other results
CC(C)COc1ccc2ccccc2c1CNCCCCCCNCc1c(OCC(C)C)ccc2ccccc12.CS(=O)(=O)O [TCMDC-137972]	47.1	41.0	61.0	84.0	43.0	37.9	36.7	62.6								HitlevelM [1, 4]: 2; HitlevelF [2, 5]: 1
CN(C)S(=O)(=O)n1ccc2c3c(N)nc(N)nc3ccc21 [TCMDC-137973]	-3.2	31.1	-3.2	-51.1	12.1	13.5	33.5	1.8								HitlevelM [1, 6]: 0; Activity [1, 7]: 0; HitlevelF [2, 8]: 0
CCCCOc1c(CNCCCCCCNCc2ccc3ccccc3c2OCCCC)ccc2ccccc12.CS(=O)(=O)O [TCMDC-137975]																Average inhibition male (%) [1, 9]: 78.3%; % inhibition male (individual replicates) R1 [1, 9]: 78.0%; % inhibition male (individual replicates) R4 [1, 9]: 67.8%; HitlevelM [1, 10]: 3; Average inhibition female (%) [2, 9]: 39.1%; % inhibition female (individual replicates) R1 [2, 9]: 52.1%; % inhibition female (individual replicates) R3 [2, 9]: 14.4%; % inhibition female (individual replicates) R4 [2, 9]: 37.6%; HitlevelF [2, 11]: 2
CC(C)(C)c1ccc(-c2cc3c(ccc4nc(N)nc(N)c43)[nH]2)cc1 [TCMDC-137977]	2.0	6.1	0.4	-0.46	6.0	2.7	-16.6	37.6								HitlevelM [1, 6]: 0; Activity [1, 7]: 0; HitlevelF [2, 8]: 0
Nc1nc(N)c2c(ccc3c2ccn3Cc2ccccn2)n1 [TCMDC-137980]									-11.9	-51.4	-22.7	1.3	-9.6	4.7	-4.0	
C=CCn1ccc2c3c(N)nc(N)nc3ccc21 [TCMDC-137995]									38.6	16.7	27.9	-8.1	-14.1	22.9	-3.2	% inhibition male (individual replicates) R3 [1, 12]: 29.0%
CCCN(CCC)CCCN(CCCN(CCC)CCC)c1cc(C)nc(Nc2ccc3cc(Br)ccc3c2)n1.Cl [TCMDC-138006]																Average inhibition male (%) [1, 9]: 65.9%; % inhibition male (individual replicates) R1 [1, 9]: 64.4%; % inhibition male (individual replicates) R3 [1, 9]: 70.2%; % inhibition male (individual replicates) R4 [1, 9]: 75.1%; HitlevelM [1, 10]: 4; Average inhibition female (%) [2, 9]: 38.7%; % inhibition female (individual replicates) R1 [2, 9]: 42.6%; % inhibition female (individual replicates) R3 [2, 9]: 25.8%; % inhibition female (individual replicates) R4 [2, 9]: 40.6%; HitlevelF [2, 11]: 0
Cc1ccc2ccncc2c1N [TCMDC-138025]									6.2	37.3	29.9	-5.1	-43.7	-6.6	-17.6	% inhibition male (individual replicates) R3 [1, 12]: 45.8%
Cc1c(Cc2ccc(C(C)C)cc2)cnc2nc(N)nc(N)c12 [TCMDC-138044]									10.0	-19.8	-5.8	2.8	-15.2	-3.9	-2.8	% inhibition male (individual replicates) R3 [1, 12]: -13.9%
COc1ccc(Cc2cnc3nc(N)nc(N)c3c2C)cc1OC.O=S(=O)(O)CCO [TCMDC-138057]	-16.7	13.3	-15.1	-55.1	4.5	12.4	-12.7	12.4								HitlevelM [1, 6]: 0; Activity [1, 7]: 0; HitlevelF [2, 8]: 0
COc1cccc(Cc2cnc3nc(N)nc(N)c3c2C)c1 [TCMDC-138060]									14.7	-36.5	7.0	-4.3	-2.0	3.5	-1.4	
COc1ccc(Cc2c(N)nc3nc(N)nc(N)c3c2C)cc1.Cl [TCMDC-138061]									17.1	-37.2	0.0933	-3.3	4.2	-0.2	0.4	
Cc1nc(N)nc(N)c1CCCOc1ccccc1Br [TCMDC-138069]	1.8	12.4	-15.7	-23.1	5.9	14.2	13.3	-1.6								HitlevelM [1, 6]: 0; Activity [1, 7]: 0; HitlevelF [2, 8]: 0
Cc1nc(N)nc(N)c1-c1ccc(Br)c([N+](=O)[O-])c1 [TCMDC-138071]	-11.3	15.3	5.2	-48.5	6.9	11.0	2.2	10.1								HitlevelM [1, 6]: 0; Activity [1, 7]: 0; HitlevelF [2, 8]: 0
Cl.Clc1ccc(CNCCCCCCCNCc2ccc(Cl)c(Cl)c2)cc1Cl [TCMDC-138075]	58.0	51.9		51.1	16.8	19.3	11.6	13.1								HitlevelM [1, 4]: 3; HitlevelF [2, 5]: 0
CC(=O)c1ccc2nc[nH]c(=O)c2c1 [TCMDC-138172]																Average inhibition male (%) [1, 9]: 79.0%; % inhibition male (individual replicates) R1 [1, 9]: 88.9%; % inhibition male (individual replicates) R3 [1, 9]: 57.7%; % inhibition male (individual replicates) R4 [1, 9]: 96.3%; HitlevelM [1, 10]: 4; Average inhibition female (%) [2, 9]: 55.1%; % inhibition female (individual replicates) R1 [2, 9]: 62.7%; % inhibition female (individual replicates) R3 [2, 9]: 39.9%; % inhibition female (individual replicates) R4 [2, 9]: 66.0%; HitlevelF [2, 11]: 3
COc1cc2nc(N3CCN(C(=O)c4c(Cl)nsc4-c4ccccc4Cl)CC3)nc(N)c2cc1OC.O=C(O)C(F)(F)F [TCMDC-138186]	36.4	33.1	-9.1	66.9	23.5	19.4	2.1	50.6								HitlevelM [1, 4]: 2; HitlevelF [2, 5]: 1
Cl.Cn1ccc(-c2cccc(Nc3ccnc4cc(-c5nccs5)ccc34)c2)n1 [TCMDC-138336]	33.2	36.9		5.3	19.1	19.3	21.6	9.3								HitlevelM [1, 4]: 1; HitlevelF [2, 5]: 0
